From US4169197A, “6-Deoxyneamines aminoglycoside compounds” (The Upjohn Company, priority 1978, dated 1979)
Values after ≈ are worked out from the molar mass of the structure shown. Where two headings read alike, the source gives them in different places.

Key:
Assay in all cases: standard microplate test in BHI Agar
Format in all cases: cell-based
S. typhi UC 215 = conditions: Salmonella enterica, BHI Agar, 37°, 20 hours
Method in brief: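 End points are read after 20 hours of incubation at 37°. The medium is Brain Heart Infusion agar in a standard microplate format. Compounds are tested at 1 mg./ml. and at dilutions of that level.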

K. pneumoniae UC 58 = conditions: Klebsiella pneumoniae, UC58, 20 h
Method in brief: (§1)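 Compounds were tested in BHI agar by a standard microplate method at 1 mg./ml. and dilutions thereof. Plates were incubated at 37°, and end points were read at 20 hours.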

P. rettgeri UC 339 = conditions: Providencia rettgeri, UC339, 20 h
Method in brief: as §1

[1] = read-out: Minimal Inhibitory Concentration
[2] = read-out: Minimum Inhibitory Concentration

Compound `NC[C@H]1O[C@H](O[C@H]2[C@H](O)[C@@H](O)[C@H](N)C[C@@H]2N)[C@H](N)[C@@H](O)[C@@H]1O` [Neamine] has an MIC (S. typhi UC 215; Table III, read-out: Minimum Inhibitory Concentration) of 15.6 µg/mL (≈ 48.4 µM), an MIC (S. typhi UC 215; Table IV, read-out: Minimal Inhibitory Concentration) of 31.2 µg/mL (≈ 96.8 µM) and an MIC (K. pneumoniae UC 58; [1]) of 7.8 µg/mL (≈ 24.2 µM). It also gave an MIC (K. pneumoniae UC 58; [2]) of 15.6 µg/mL (≈ 48.4 µM), an MIC (P. rettgeri UC 339; [1]) greater than 500 µg/mL and an MIC (P. rettgeri UC 339; [2]) of 250 µg/mL (≈ 776 µM).
